Assay type in all cases: in vivo, BALB/C nude mice
One test deals with human lung cancer A549. In words: Human lung cancer A549 transplanted tumors in nude mice. The conditions noted are these: A549, 400 mg/kg ig × 14; for inhibition in vivo at 400 mg/kg: Mus musculus, po, read-out: Tumor inhibitory rate %. How it is done:
In this experiment, a human lung cancer A549 model transplanted into nude mice was selected to study the anti-tumor effect of test compounds. The mice were treated at a dosage of 400 mg/kg by gavage for 14 days, and the tumor inhibition rate against human lung cancer A549 was measured.
Preparation: The compound was prepared as the solution at the desired concentration with distilled water, prior to administration.
Animal strain: BALB/C nude mice (SPF grade), weight: 19-21 g, gender: male. Number of animals in each treatment group: 8; Number of animals in the control group: >12.
Lung cancer A549 tumor blocks with good growth were chosen and cut into uniform small pieces of 3 mm under sterile conditions, and then subcutaneously inoculated into the right armpit of each mouse with a cannula. These mice were divided into 9 groups, 8 mice for each treatment group, while more than 12 mice were included in the control group.
14 days after inoculation, the average volume of the tumor mass was about 100 mm^3. The animals were regrouped based on the size of the tumor, and the mice with tumors that were too large and too small were eliminated. For each group, the average volume of tumors was basically the same, and then the mice were treated with test compounds. The mice in the treatment groups were administered once a day by gavage for 14 successive days, at a dosage of 0.5 mL/20 g body weight; the mice in the control group were given the same volume of physiological saline. From the 14th day of inoculation, the long diameter a (mm) of the tumor, together with the perpendicular short diameter b (mm), was measured using a digital electronic caliper, twice a week. The calculation formula of tumor volume is: TV=ab^2/2, and the formula for calculating the relative tumor volume is RTV=Vt/Vo, wherein Vo denotes the tumor volume measured when the mice were divided into groups (i.e. d1), and Vt is the tumor volume from each measurement.
(§1) The result determination is based on the following formula: […]

The subject of test [1] is human ovarian cancer A2780. In words: Human ovarian cancer A2780 transplanted tumor in nude mice. The conditions noted are these: A2780, 200 mg/kg ip × 14. How it is done: A human ovarian cancer A2780 model transplanted into nude mice was used in the experiment to investigate the anti-tumor effect of test compounds.
(§2) Preparation: The compound was prepared as the injection at the desired concentration with sterile normal saline, prior to administration.
(§3) Animal strain: BALB/C nude mice (SPF grade), weight: 19-21 g, gender: male.
(§4) Number of animals in each treatment group: 8; number of animals in the control group: >12.
The tumor blocks of human ovarian cancer A2780 growing well were cut into uniform small pieces of 3 mm under sterile conditions, and then subcutaneously inoculated into the right armpit of each mouse with a cannula. The mice were divided into 9 groups, 8 mice for each treatment group, while >12 mice were included in the control group.
(§5) 14 days after inoculation, the average volume of the tumor block was about 100 mm^3. The animals were regrouped based on the size of the tumor, and the animals with tumors that were too large and too small were sifted out. For each group, the average volume of tumors was basically the same, and then the mice were initially treated with test compounds. The mice were intraperitoneally injected once a day for 14 days, at a dosage of 0.2 mL/20 g body weight; the mice in the control group were given the same volume of sterile normal saline. From the 14th day of inoculation, the long diameter a (mm) of the tumor, together with the perpendicular short diameter b (mm), was measured using a digital electronic caliper, twice a week. The calculation formula of tumor volume is: TV=ab^2/2, and the formula for calculating the relative tumor volume is RTV=Vt/Vo, wherein Vo denotes the tumor volume measured when the mice were divided into groups (i.e. d1), and Vt is the tumor volume from each measurement.
as §1

The subject of test [2] is human renal cell carcinoma AGHN. In words: Human renal cell carcinoma AGHN transplanted tumor in nude mice. How it is done: A human renal cell carcinoma AGHN model transplanted into nude mice was used in the experiment to investigate the anti-tumor effect of test compounds. […] AGHN was measured.
as §2
Animal strain: BALB/C, nude mice (SPF grade), weight: 19-21 g, gender: male. Number of animals in each treatment group: 8; number of animals in the control group: >12.
The tumor blocks of human renal cell carcinoma AGHN with good growth were cut into uniform small pieces of 3 mm under sterile conditions, and then subcutaneously inoculated into the right armpit of each mouse with a cannula. The mice were divided into 9 groups, 8 mice for each treatment group, while >12 mice were included in the control group.
as §5, with “about 100 mm^3, The animals” for “about 100 mm^3. The animals”, “tumor volume is: RTV=Vt/Vo, wherein” for “tumor volume is RTV=Vt/Vo, wherein”, “and Vt denotes the tumor” for “and Vt is the tumor”
as §1

Test [3] has as its system human prostate cell LNCaP. In words: Human prostate cell LNCaP transplanted tumor in nude mice. The method, then:
A human prostate cell LNCaP model transplanted into nude mice was used in the experiment to investigate the anti-tumor effect of test compounds.
as §2, §3, §4
The tumor blocks of human prostate cell LNCaP with good growth were cut into uniform small pieces of 3 mm under sterile conditions, and then subcutaneously inoculated into the right armpit of each mouse with a cannula. The mice were divided into 9 groups, 8 mice for each treatment group, while >12 mice were included in the control group,
as §5, with “sifted out,” for “sifted out.”, “volume is: RTV=Vt/[…],” for “volume is RTV=Vt/Vo,”, “Vt denotes” for “Vt is”
as §1

The mark [4] stands for this setting: 200 mg/kg ip × 14, listed as compound 4, 200 mg/kg.

Marks after values point to notes of the source that are not given here.

For the compound `COc1ccc(/C=C(/C(=O)O)c2cc(OC)c(OC)c(OC)c2)c(O)c1O` [Compound 1, (E)-3-(2,3-dihydroxy-4-methoxyphenyl)-2-(3,4,5-trimethoxylphenyl)acrylic acid], in the test with human lung cancer A549, the “RTV (d 22)” value is reported as 4.27 ± 0.48 and the inhibition in vivo at 400 mg/kg stood at 63.6%. Further, in test [1], the “RTV (d 18)” value is recorded as 5.63 ± 0.72 and the “Tumor inhibitory rate %” value is 45.39^## %. Moreover, in test [2] (200 mg/kg ip × 14), the “RTV (d 18)” value is 6.31 ± 0.91 and the “Tumor inhibitory rate %” value is 54.24^## %. Moreover, in test [3] (200 mg/kg ip × 14), the “RTV (d 18)” value amounted to 4.92 ± 0.82 and the “Tumor inhibitory rate %” value is 56.27^## %.

In the case of `COc1cc(/C=C(/C(=O)O)c2cc(OC)c(OC)c(OC)c2)cc(OC)c1` [Compound 3, (E)-3-(3,5-dimethoxyphenyl)-2-(3,4,5-trimethoxyphenyl)acrylic acid], in the test with human lung cancer A549, the “RTV (d 22)” value is 4.52 ± 0.76 and the inhibition in vivo at 400 mg/kg worked out at 61.5%. Further, in test [2] (200 mg/kg ip × 14), the “RTV (d 18)” value came to 5.47 ± 0.82 and the “Tumor inhibitory rate %” value was 60.33^# %. Also, in test [3] (200 mg/kg ip × 14), the “RTV (d 18)” value is on record as 4.77 ± 0.71 and the “Tumor inhibitory rate %” value was 60.87^## %.

In the case of `COc1ccc(/C=C(/C(=O)O)c2cc(OC)c(OC)c(OC)c2)cc1F` [Compound 4, (E)-3-(3-fluoro-4-methoxyphenyl)-2-(3,4,5-trimethoxyphenyl)acrylic acid], in the test on human lung cancer A549, the “RTV (d 22)” value came out at 5.23 ± 1.43. Further, in the test with human lung cancer A549, the inhibition in vivo at 400 mg/kg turned out to be 55.5%. The “RTV (d 18)” value is given as 4.51 ± 0.67 in test [1], 4.31 ± 0.58 in test [2] (200 mg/kg ip × 14) and 3.73 ± 0.60 in test [3] (200 mg/kg ip × 14). Besides, the “Tumor inhibitory rate %” value in test [1] was 56.26^## %; in test [2] (200 mg/kg ip × 14, 200 mg/kg) it was 68.75%; in test [2] (setting [4]), “best inhibitory effect on renal cell carcinoma”; in test [3] (200 mg/kg ip × 14, 200 mg/kg), 69.40%; in test [3] (setting [4]), “best inhibitory effect on prostate cancer”.

With `COc1ccc(/C=C(/C(=O)O)c2cc(OC)c(OC)c(OC)c2)cc1O` [Compound 6, (E)-3-(3-hydroxy-4-methoxyphenyl)-2-(3,4,5-trimethoxyphenyl)acrylic acid], the “RTV (d 22)” value in the test with human lung cancer A549 was determined as 2.51 ± 0.94. Moreover, the “Tumor inhibitory rate %” value in the test with human lung cancer A549 is “best inhibitory effect on lung cancer”; in test [1], 65.28%; in test [1] (listed as compound 6) it was “best inhibitory effect on ovarian cancer”; in test [2] (200 mg/kg ip × 14), 52.64^## %; in test [3] (200 mg/kg ip × 14) it was 64.97^# %. Also, the inhibition in vivo at 400 mg/kg in the test on human lung cancer A549 worked out at 78.6%. Besides, the “RTV (d 18)” value in test [1] was 3.58 ± 0.49; in test [2] (200 mg/kg ip × 14), 6.53 ± 0.85; in test [3] (200 mg/kg ip × 14), 4.27 ± 0.92.

With `COc1cc(/C(=C\c2cc(O)c(OC)c(F)c2)C(=O)O)cc(OC)c1OC` [Compound 8, (E)-3-(5-fluoro-3-hydroxy-4-methoxyphenyl)-2-(3,4,5-trimethoxyphenyl)acrylic acid], in the test with human lung cancer A549, the “RTV (d 22)” value is listed as 4.22 ± 0.75 and the inhibition in vivo at 400 mg/kg is 64.1%. Further, in test [1], the “RTV (d 18)” value is 5.21 ± 0.47 and the “Tumor inhibitory rate %” value is 49.47^## %. Moreover, in test [2] (200 mg/kg ip × 14), the “RTV (d 18)” value is 6.22 ± 0.63 and the “Tumor inhibitory rate %” value is listed as 54.89^## %. For the same compound, in test [3] (200 mg/kg ip × 14), the “RTV (d 18)” value stood at 6.72 ± 0.85 and the “Tumor inhibitory rate %” value is listed as 44.87^## %.

For the compound `COc1ccc(/C=C(/C(=O)O)c2cc(OC)c(OC)c(OC)c2)c(F)c1O` [Compound 9, (E)-3-(2-fluoro-3-hydroxy-4-methoxyphenyl)-2-(3,4,5-trimethoxyphenyl)acrylic acid], the “RTV (d 18)” value in test [1] is 4.37 ± 0.62; in test [2] (200 mg/kg ip × 14), 5.12 ± 0.77. Also, the “Tumor inhibitory rate %” value in test [1] is 57.61^# %; in test [2] (200 mg/kg ip × 14), 62.87^# %.

As for `COc1cc(/C=C(/C(=O)[O-])c2cc(OC)c(OC)c(OC)c2)cc(OC)c1F.[K+]` [Compound 10], in test [1], the “RTV (d 18)” value came out at 4.26 ± 0.73 and the “Tumor inhibitory rate %” value is on record as 58.68^# %. In test [3] (200 mg/kg ip × 14), the “RTV (d 18)” value turned out to be 4.55 ± 0.81 and the “Tumor inhibitory rate %” value was 62.67^# %.

Turning to `COc1cc(/C(=C\c2cc(O)c(OC)c(O)c2)C(=O)O)cc(OC)c1OC` [Compound 11, (E)-3-(3,5-dihydroxy-4-methoxyphenyl)-2-(3,4,5-trimethoxyphenyl)acrylic acid], in the test on human lung cancer A549, the “RTV (d 22)” value stood at 4.07 ± 0.51 and the inhibition in vivo at 400 mg/kg was 65.4%.

Values taken from patent publication US20240130988A1, “Use of stilbene compounds in the preparation of anti-tumor drugs” (Guangzhou AnHao Pharmaceutical Technology CO., LTD., priority 2022, published 2024).
